# How the values were obtained:
# [1] = test system: Staphylococcus aureus-SMITH (GC 4543); assay: acute lethal infection in mice; type: in vivo; details: acute lethal infection, female CD-1 mice, intraperitoneal challenge, intravenous 30 min. after infection, 7 day survival
# Outline: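 ED50 from 7 day survival ratios pooled over 3 separate tests. Female CD-1 mice, 20+/−2 gm, ip bacterial challenge (trypticase soy broth or hog gastric mucin) lethal to untreated controls in 24-48 hr; iv dosing 30 min after infection in saline or 5% dextrose, n=5/dose.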
# Enterococcus sp. = assay: in vitro antibacterial evaluation, MIC by broth dilution; type: cell-based; details: broth dilution, 18 hours at 35° C.; for MIC Enterococcus faecalis (ATCC 29212): strain ATCC 29212; for MIC Enterococcus faecium (GC 2243): strain GC 2243; for MIC Enterococcus faecalis (GC 4552): strain GC 4552; for MIC Enterococcus faecalis (GC 4553): strain GC 4553; for MIC Enterococcus faecalis (GC 4554): strain GC 4554; for MIC Enterococcus faecium (GC 4556): strain GC 4556; for MIC Enterococcus faecium (GC 4557): strain GC 4557; for MIC Enterococcus avium (GC 4558): strain GC 4558; for MIC Enterococcus faecalis (GC 6189): strain GC 6189
# Outline: (§1)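 Broth dilution per NCCLS M7-A2 in Mueller-Hinton II medium, inoculum 5×10^5 CFU/mL, antibiotic range 64-0.06 μg/mL. MIC taken as lowest concentration inhibiting growth; Gram-positive panel includes recent clinical isolates resistant to methicillin, penicillin and/or vancomycin.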
# Staphylococcus sp. = assay: as above; type: cell-based; details: broth dilution, 18 hours at 35° C.; for MIC Staphylococcus aureus (GC 1131): strain GC 1131
# Outline: as §1
# Escherichia coli = assay: as above; type: cell-based
# Outline: as §1
# Streptococcus sp. = assay: as above; type: cell-based; details: broth dilution, 18 hours at 35° C.
# Outline: as §1
smiles,measurement,setting,value
"CC(c1ccccc1)C1NC(=O)CNC(=O)C(CO)NC(=O)C(C(O)C2CNC(=N)N2C2OC(CO)C(O)C(O)C2O)NC(=O)C(C(O)C2CNC(=N)N2)NC(=O)C(Cc2ccc(OC3OC(CO)C(OC4OC5COC(c6cccc(-c7ccccc7)c6)OC5C(O)C4O)C(O)C3O)cc2)NC1=O (stereo not drawn) [Example 154, Cyclo[glycyl-β-methylphenylalanyl-O-[4-O-[4,6-O-(3-phenylbenzylidene)hexopyranosyl]-hexopyranosyl]tyrosyl-3-(2-iminoimidazolidin-4-yl)seryl-3-(3-hexopyranosyl-2-iminoimidazolidin-4-yl)serylseryl]]","median effective dose (ED50), Staphylococcus aureus-SMITH (GC 4543)",[1],0.1 mg/kg
same,MIC Enterococcus faecalis (GC 2242),Enterococcus sp.; Enterococcus faecalis (GC 2242),2 µg/mL
same,MIC Enterococcus faecalis (GC 2691),Enterococcus sp.; Enterococcus faecalis (GC 2691),2 µg/mL
same,MIC Enterococcus faecalis (GC 3059),Enterococcus sp.; Enterococcus faecalis (GC 3059),2 µg/mL
same,MIC Enterococcus faecalis (ATCC 29212),Enterococcus sp.; inoculum 5×10^5 CFU/mL,2 µg/mL
same,MIC Enterococcus faecium (GC 2243),Enterococcus sp.; inoculum 5×10^5 CFU/mL,2 µg/mL
same,MIC Enterococcus faecalis (GC 4552),Enterococcus sp.; inoculum 5×10^5 CFU/mL,2 µg/mL
same,MIC Enterococcus faecalis (GC 4553),Enterococcus sp.; inoculum 5×10^5 CFU/mL,2 µg/mL
same,MIC Enterococcus faecalis (GC 4554),Enterococcus sp.; inoculum 5×10^5 CFU/mL,2 µg/mL
same,MIC Enterococcus faecium (GC 4556),Enterococcus sp.; inoculum 5×10^5 CFU/mL,2 µg/mL
same,MIC Enterococcus faecium (GC 4557),Enterococcus sp.; inoculum 5×10^5 CFU/mL,2 µg/mL
same,MIC Enterococcus avium (GC 4558),Enterococcus sp.; inoculum 5×10^5 CFU/mL,1 µg/mL
same,MIC Enterococcus faecalis (GC 6189),Enterococcus sp.; inoculum 5×10^5 CFU/mL,2 µg/mL
same,MIC Enterococcus faecalis (ATCC 29212),Enterococcus sp.,2 µg/mL
same,MIC Enterococcus faecalis (GC 2242),Enterococcus sp.; strain GC 2242,2 µg/mL
same,MIC Enterococcus faecium (GC 2243),Enterococcus sp.,2 µg/mL
same,MIC Enterococcus faecalis (GC 2691),Enterococcus sp.; strain GC 2691,2 µg/mL
same,MIC Enterococcus faecalis (GC 3059),Enterococcus sp.; strain GC 3059,2 µg/mL
same,MIC Enterococcus faecalis (GC 4552),Enterococcus sp.,2 µg/mL
same,MIC Enterococcus faecalis (GC 4553),Enterococcus sp.,2 µg/mL
same,MIC Enterococcus faecalis (GC 4554),Enterococcus sp.,2 µg/mL
same,MIC Enterococcus faecium (GC 4556),Enterococcus sp.,2 µg/mL
same,MIC Enterococcus faecium (GC 4557),Enterococcus sp.,2 µg/mL
same,MIC Enterococcus avium (GC 4558),Enterococcus sp.,1 µg/mL
same,MIC Enterococcus faecalis (GC 6189),Enterococcus sp.,2 µg/mL
same,MIC Staphylococcus aureus (GC 1131),Staphylococcus sp.; inoculum 5×10^5 CFU/mL,1 µg/mL
same,MIC Staphylococcus aureus (ATCC 29213),Staphylococcus sp.; strain ATCC 29213,1 µg/mL
same,MIC Staphylococcus aureus (GC 1131),Staphylococcus sp.,1 µg/mL
same,MIC Staphylococcus aureus (GC 3051),Staphylococcus sp.; strain GC 3051,1 µg/mL
same,MIC Staphylococcus aureus (GC 3053),Staphylococcus sp.; strain GC 3053,2 µg/mL
same,MIC Staphylococcus aureus (GC 4541),Staphylococcus sp.; strain GC 4541,1 µg/mL
same,MIC Staphylococcus aureus (GC 4542),Staphylococcus sp.; strain GC 4542,1 µg/mL
same,MIC Staphylococcus aureus-SMITH (GC 4543),Staphylococcus sp.; strain GC 4543,1 µg/mL
same,MIC Staphylococcus aureus (GC 4544),Staphylococcus sp.; strain GC 4544,2 µg/mL
same,MIC Staphylococcus aureus (GC 4545),Staphylococcus sp.; strain GC 4545,1 µg/mL
same,MIC Staphylococcus haemolyticus (GC 4546),Staphylococcus sp.; strain GC 4546,1 µg/mL
same,MIC Coagulase Negative Staphylococcus (GC 4547),Staphylococcus sp.; strain GC 4547,2 µg/mL
same,MIC Coagulase Negative Staphylococcus (GC 4548),Staphylococcus sp.; strain GC 4548,0.5 µg/mL
same,MIC Coagulase Negative Staphylococcus (GC 4549),Staphylococcus sp.; strain GC 4549,0.25 µg/mL
same,MIC Coagulase Negative Staphylococcus (GC 4551),Staphylococcus sp.; strain GC 4551,2 µg/mL
same,MIC Coagulase Negative Staphylococcus (GC 6257),Staphylococcus sp.; strain GC 6257,1 µg/mL
same,MIC Staphylococcus aureus-SMITH (GC 4543),Staphylococcus sp.; strain SMITH GC 4543,1 µg/mL
same,MIC Escherichia coli (ATCC 25922),"Escherichia coli; strain ATCC 25922, 18 hours at 35° C.",32 µg/mL
same,MIC Escherichia coli (GC 4559),"Escherichia coli; strain GC 4559, 18 hours at 35° C.",32 µg/mL
same,MIC Escherichia coli (GC 4560),"Escherichia coli; strain GC 4560, 18 hours at 35° C.",2 µg/mL
same,MIC Streptococcus agalactiae (GC 4564),Streptococcus sp.; Streptococcus agalactiae (GC 4564),<0.06 µg/mL
same,MIC Streptococcus pneumoniae (ATCC 6301),Streptococcus sp.; Streptococcus pneumoniae (ATCC 6301),<0.06 µg/mL
same,MIC Streptococcus pneumoniae (GC 1894),Streptococcus sp.; Streptococcus pneumoniae (GC 1894),<0.06 µg/mL
same,MIC Streptococcus pneumoniae (GC 4565),Streptococcus sp.; Streptococcus pneumoniae (GC 4565),<0.06 µg/mL
same,MIC Streptococcus pyogenes (GC 4563),Streptococcus sp.; Streptococcus pyogenes (GC 4563),<0.06 µg/mL
same,MIC Streptococcus pneumoniae (ATCC 6301),Streptococcus sp.; strain ATCC 6301,<0.06 µg/mL
same,MIC Streptococcus pneumoniae (GC 1894),Streptococcus sp.; strain GC 1894,<0.06 µg/mL
same,MIC Streptococcus pyogenes (GC 4563),Streptococcus sp.; strain GC 4563,<0.06 µg/mL
same,MIC Streptococcus agalactiae (GC 4564),Streptococcus sp.; strain GC 4564,<0.06 µg/mL
same,MIC Streptococcus pneumoniae (GC 4565),Streptococcus sp.; strain GC 4565,<0.06 µg/mL
